Where two headings read alike, the source gives them in different places.
What was measured:
[1] = biological target: T1, α-glucosidase type I from Baker's Yeast (Saccharomyces cerevisiae, UniProt P53341); experiment: biochemical
T1 construct: purchased Sigma-Aldrich
Procedure: (§1) Soluble starch, sodium dihydrogenphosphate (NaH2PO4), sodium potassium tartrate and sodium chloride were purchased from Merck. Analytical grade solvents for extraction and HPLC grade solvents for chromatography were from Scharlau (Barcelona, Spain). HPLC grade water was obtained by an EASY-pure II (Barnstead, Dubuque IA, USA) water purification system. Deuterated solvents were purchased from Armar Chemicals (Döttingen, Switzerland).
The α-glucosidase inhibition was measured according to an earlier reported bioassay method ([18]). […] The mixed solution was incubated in 96-well plates at 37 °C for 15 min. After preincubation, the enzymatic reaction was initiated by adding 20 µL of 5 mM p-nitrophenyl-α-D-glucopyranoside solution in 0.1 M phosphate buffer (pH 6.9), and the reaction mixture was incubated for another 15 min at 37 °C. […] The reaction system without plant extracts was used as control and the system without α-glucosidase was used as blank for correcting the background absorbance. The inhibitory rate of sample on α-glucosidase was calculated by the following formula:
% Inhibition=control absorbance-sample absorbance/control absorbance×100
(§2) Statistical analyses were done using GraphPad Prism version 5.00 for Windows. Differences were evaluated by one-way analysis of variance (ANOVA) test completed by Tukey’s multicomparison test. Statistical signiﬁcance was declared at a p<0.05. All assays were performed at least in triplicate and the results were expressed as mean ± standard deviation (SD). IC50 values were determined by plotting a percent inhibition versus concentration curve for all assays.

[2] = biological target: T2, Porcine pancreas α-amylase type VI (Sus scrofa, UniProt P00690); experiment: biochemical
T2 construct: purchased Sigma-Aldrich
T2 sequence (P00690 16-511): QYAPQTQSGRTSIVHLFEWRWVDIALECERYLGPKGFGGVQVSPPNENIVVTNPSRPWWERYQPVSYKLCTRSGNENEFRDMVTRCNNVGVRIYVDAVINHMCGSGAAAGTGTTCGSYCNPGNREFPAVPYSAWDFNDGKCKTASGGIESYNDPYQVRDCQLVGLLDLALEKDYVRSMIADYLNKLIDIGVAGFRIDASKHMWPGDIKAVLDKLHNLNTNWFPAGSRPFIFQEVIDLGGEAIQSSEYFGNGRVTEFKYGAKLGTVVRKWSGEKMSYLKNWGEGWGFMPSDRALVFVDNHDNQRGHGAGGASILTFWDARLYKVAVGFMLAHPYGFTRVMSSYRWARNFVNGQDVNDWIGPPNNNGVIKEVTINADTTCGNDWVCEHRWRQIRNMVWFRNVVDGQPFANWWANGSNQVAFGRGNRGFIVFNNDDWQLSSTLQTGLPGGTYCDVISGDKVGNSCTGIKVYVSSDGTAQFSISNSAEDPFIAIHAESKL
Procedure: as §1
α-Amylase inhibition activity was assessed by a previously reported procedure with some modifications ([17]). […] Individual blanks were prepared to correct for the blank ground absorbance, where the enzyme was replaced with buffer as follows:
Corrected absorbance of test sample = Absorbance of sample –absorbance of blank
From the net absorbance obtained, the % (w/v) of maltose generated was calculated from the equation obtained from the maltose standard calibration curve (0–0.1%, w/v, maltose).
Control incubations, representing 100% enzyme activity, were conducted in the same manner replacing the plant extract with DMSO. The percentage of α-amylase inhibition was calculated by the following equations:
% reaction=mean of maltose in sample/mean of maltose in control×100
% α-amylase inhibition activity= 100 - % reaction
as §2

[3] = isolated compounds, pH 6.8, 37 °C, 30 min, mean ± SD, read-out: α-amylase (IC50 µM)

T1 sequence (P53341 whole entry): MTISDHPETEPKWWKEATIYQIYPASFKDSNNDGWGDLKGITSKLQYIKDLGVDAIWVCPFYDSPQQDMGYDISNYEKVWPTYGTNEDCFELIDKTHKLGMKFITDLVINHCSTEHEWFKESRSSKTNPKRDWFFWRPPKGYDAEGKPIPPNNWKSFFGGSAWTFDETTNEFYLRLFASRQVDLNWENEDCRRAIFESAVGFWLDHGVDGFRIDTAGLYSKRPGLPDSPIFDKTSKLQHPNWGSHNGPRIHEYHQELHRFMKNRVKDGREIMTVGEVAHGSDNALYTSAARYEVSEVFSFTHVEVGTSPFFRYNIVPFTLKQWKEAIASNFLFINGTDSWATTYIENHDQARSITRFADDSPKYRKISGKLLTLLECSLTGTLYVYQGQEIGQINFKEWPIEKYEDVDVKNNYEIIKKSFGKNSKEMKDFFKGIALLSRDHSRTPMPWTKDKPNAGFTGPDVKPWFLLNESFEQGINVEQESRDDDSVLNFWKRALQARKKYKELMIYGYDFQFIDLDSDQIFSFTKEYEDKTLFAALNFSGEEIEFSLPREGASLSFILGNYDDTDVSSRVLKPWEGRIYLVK

SMILES: COc1ccc(-c2cc(=O)c3c(O)c(OC)c(OC)cc3o2)cc1 [Compound 4, salvigenin]
- IC50 ([1]; isolated compounds, pH 6.9, 37 °C, mean ± SD, read-out: α-glucosidase (IC50 µM)): > 50 µM
- IC50 [2]: > 100 µM

SMILES: COc1ccc(-c2cc(=O)c3c(O)cc(O[C@@H]4O[C@H](C(=O)O)[C@@H](O)[C@H](O)[C@H]4O)cc3o2)cc1O [Compound 3, diosmetin 7-O-glucuronide]
- IC50 [1]: 17.1 ± 1.9 µM
- IC50 [2, 3]: 76.3 ± 0.6 µM

SMILES: O=c1cc(-c2ccc(O)c(O)c2)oc2cc(O[C@@H]3O[C@H](CO)[C@@H](O)[C@H](O)[C@H]3O)cc(O)c12 [Compound 1, luteolin 7-O-glucoside]
- IC50 [1]: 18.3 ± 1.7 µM
- IC50 [2, 3]: 81.7 ± 2.3 µM

SMILES: O=C(O)[C@H]1O[C@@H](Oc2cc(O)c3c(=O)cc(-c4ccc(O)c(O)c4)oc3c2)[C@H](O)[C@@H](O)[C@@H]1O [Compound 2, luteolin 7-O-glucuronide]
- IC50 [1]: 14.7 ± 2.1 µM
- IC50 [2, 3]: 61.5 ± 1.4 µM

From paper PMC4403079, “Flavonoids from Salvia chloroleuca with α-Amylsae and α-Glucosidase Inhibitory Effect” (Iranian Journal of Pharmaceutical Research : IJPR, 2015)
